For the test, the system named is HL-60. The test is described as follows: Cytostatic activity against human HL60 cells after 72 hrs by MTT assay. The settings on record: HL-60, 72 h. The format is functional, cell-based. (Tetrazolium assays rely on reduction of a dye to a coloured formazan, in cell work by metabolically active cells.)

For orientation: IC50 means the midpoint of a concentration-inhibition curve.

≈ marks a conversion by molar mass, not a printed value.

In turn, `C=C1CO[C@@]2(O[C@H]3C[C@H]4[C@@H]5CC=C6C[C@@H](O)C[C@@H](O[C@@H]7OC[C@H](O)[C@H](O)[C@H]7O[C@@H]7O[C@@H](C)[C@H](OC(C)=O)[C@@H](OC(C)=O)[C@H]7OC(C)=O)[C@]6(C)[C@H]5CC[C@]4(C)[C@H]3[C@@H]2C)[C@@H](O)[C@H]1O[C@@H]1O[C@H](C)C(=O)[C@H](O)[C@H]1O` [ACULEOSIDE A] registered an IC50 of 0.48 µg/mL (≈ 0.476 µM).

For the origin of these results see ChEMBL document CHEMBL1150965, “Aculeoside B, a new bisdesmosidic spirostanol saponin from the underground parts of Ruscus aculeatus” (J Nat Prod, 1998).
